ChEMBL document CHEMBL1201862, “PubChem BioAssay data set” (2004)
Several values for one entry are separate records, joined by “and”; a condition that tells them apart may be missing. Equal entries are not always repeated.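 Compound exposure: 48 hours, 5 concentrations, 96-well plates. GI50 = concentration required for 50% inhibition of growth.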 Activity calls are given as the source filed them. Cut-off read from the data, not from the text of the source: active = GI50 up to about 1.1 µM and inactive = higher.

Legend:
Assay in all cases: NCI-60 cell line screen, 48 h
[1] = system: UACC-62
[2] = system: 786-0
[3] = system: IGROV-1
[4] = system: OVCAR-8
[5] = system: U-251
[6] = system: SN12C
[7] = system: SR
[8] = system: ACHN
[9] = system: SK-MEL-28
[10] = system: DU-145
[11] = system: SNB-75
[12] = system: A549
[13] = system: EKVX
[14] = system: HT-29
[15] = system: HCT-15
[16] = system: HOP-62
[17] = system: Malme-3M
[18] = system: SF-268
[19] = system: NCI-H23
[20] = system: UACC-257
[21] = system: MOLT-4
[22] = system: SK-MEL-5
[23] = system: OVCAR-3
[24] = system: OVCAR-5
[25] = system: COLO 205
[26] = system: SF-539
[27] = system: SK-MEL-2
[28] = system: MDA-MB-435
[29] = system: SNB-19
[30] = system: NCI-H460
[31] = system: TK-10
[32] = system: CAKI-1
[33] = system: M14
[34] = system: PC-3
[35] = system: HCT-116
[36] = system: SW-620
[37] = system: HCC 2998
[38] = system: T47D
[39] = system: Hs-578T
[40] = system: K562
[41] = system: HL-60
[42] = system: MCF7
[43] = system: CCRF-CEM
[44] = system: HOP-92
[45] = system: UO-31
[46] = system: OVCAR-4
[47] = system: RXF 393
[48] = system: NCI/ADR-RES
[49] = system: NCI-H522
[50] = system: KM12
[51] = system: SK-OV-3
[52] = system: SF-295
[53] = system: NCI-H226
[54] = system: MDA-N
[55] = system: RPMI-8226
[56] = system: LOX IMVI
[57] = system: MDA-MB-231
[58] = system: A498
[59] = system: BT-549

Measured: GI50

COc1ccccc1C#C/C=C\C#Cc1ccccc1C#N
6.93 µM: [15]
active: [21] 0.268 µM
inactive: [1] 23.7 µM | [2] 18.5 µM | [3] 10.4 µM | [4] 5.35 µM | [5] 9.18 µM | [6] 26 µM | [7] 4.08 µM | [8] 13.9 µM | [9] 34.2 µM | [10] 20 µM | [11] 28.7 µM | [12] 6.89 µM | [13] 5.94 µM | [14] 6.28 µM | [16] 14.5 µM | [17] 9.98 µM | [18] 19.4 µM | [19] 5.61 µM | [20] 5.2 µM | [22] 2.09 µM | [23] 4.4 µM | [24] 39.2 µM | [25] 13.3 µM | [26] 18.6 µM | [27] 14.9 µM | [28] 3.24 µM | [29] 37.8 µM | [30] 13.3 µM | [31] 20.7 µM | [32] 3.72 µM | [33] 6.08 µM | [34] 13.2 µM | [35] 7.35 µM | [36] 6.32 µM | [37] 6.19 µM | [38] 5.86 µM | [39] 25.9 µM | [40] 3.68 µM | [41] 4.55 µM | [42] 4.61 µM | [43] 5.26 µM | [44] 31.7 µM | [45] 10.9 µM | [46] 96.8 µM | [47] 7.98 µM | [48] 10.4 µM | [49] 5.14 µM | [50] 6.37 µM | [51] 39.8 µM | [52] 6.58 µM

COC(=O)c1c(C(=O)OC)c2ccccn2c1-c1cc(C)cc2c1C(=O)C=CC2=O
inactive: [1] 11.7 µM | [2] 5.48 µM | [3] 12.8 µM | [4] 6.3 µM | [6] 12.7 µM | [7] 3.93 µM | [8] 12.6 µM | [9] 12.9 µM | [10] 14 µM | [11] 16.4 µM | [12] 16.3 µM | [53] 13.8 µM | [13] 14.8 µM | [54] 10.5 µM | [14] 11.2 µM | [16] 15.7 µM | [17] 10.2 µM | [18] 13.9 µM | [19] 8.09 µM | [20] 3.43 µM | [21] 1.38 µM | [55] 4.11 µM | [22] 12.4 µM | [23] 11 µM | [24] 12.1 µM | [25] 5.22 µM | [26] 11 µM | [27] 12.5 µM | [28] 11.4 µM | [29] 13.7 µM | [30] > 10 µM | [31] 14.1 µM | [32] 5.08 µM | [33] 9.48 µM | [34] 14 µM | [35] 10.7 µM | [56] > 10 µM | [36] 2.89 µM | [37] 13.9 µM | [38] 4.21 µM | [39] 12.9 µM | [40] 2.67 µM | [57] 10.4 µM | [41] 2.24 µM | [45] 2.38 µM | [46] 14.2 µM | [47] 14.1 µM | [48] 15.6 µM | [49] > 10 µM | [50] > 10 µM | [51] > 10 µM | [58] 12.8 µM | [52] 12.2 µM
active: [43] 0.796 µM
10.6 µM: [15]

COc1ccccc1/C=C(/C)[N+](=O)[O-]
inactive: [1] 1.89 µM and 1.58 µM | [2] 1.37 µM and 1.13 µM | [3] 2.17 µM and 1.6 µM | [4] 1.79 µM and 2.12 µM | [5] 1.68 µM and 1.79 µM | [6] 2.24 µM and 1.98 µM | [8] 2.17 µM and 2.44 µM | [9] 2.46 µM and 2.19 µM | [12] 2.33 µM and 2.98 µM | [53] 2.02 µM and 2.34 µM | [13] 3.21 µM and 4.49 µM | [14] 3.65 µM and 3.44 µM | [16] 1.81 µM and 3.37 µM | [17] 2.51 µM and 1.85 µM | [19] 2.15 µM and 2.2 µM | [20] 1.74 µM and 1.77 µM | [22] 2.07 µM and 1.85 µM | [25] 3.05 µM and 1.83 µM | [26] 1.77 µM and 2.28 µM | [27] 1.99 µM and 2.53 µM | [28] 3.15 µM and 1.93 µM | [29] 4.26 µM and 2.33 µM | [31] 2.06 µM and 4.06 µM | [33] 1.37 µM and 1.21 µM | [34] 2.79 µM and 2.53 µM | [36] 2.43 µM and 2.02 µM | [37] 1.48 µM and 3.94 µM | [39] 4.55 µM and 4.24 µM | [57] 3.43 µM and 4.86 µM | [41] 1.88 µM and 1.21 µM | [44] 2.21 µM | [45] 1.69 µM and 1.72 µM | [46] 5.94 µM and 3.86 µM | [48] 3.44 µM and 2.65 µM | [49] 1.39 µM and 1.19 µM | [50] 2.96 µM and 1.74 µM | [58] 7.13 µM and 5.14 µM
active: [10] 1.02 µM and 1.04 µM | [21] 269 nM and 255 nM
1.44 µM (inactive) and 1.04 µM (active): [38]
1.32 µM (inactive) and 1.09 µM (active): [23]
1.96 µM and 2.01 µM: [15]

c1csc(-c2nn3c(C45CC6CC(CC(C6)C4)C5)nnc3s2)c1
> 100 µM: [15]
inactive: [1] > 100 µM | [2] > 100 µM | [3] > 100 µM | [4] > 100 µM | [5] > 100 µM | [6] > 100 µM | [7] > 100 µM | [8] > 100 µM | [9] > 100 µM | [10] > 100 µM | [11] > 100 µM | [12] > 100 µM | [53] > 100 µM | [13] > 100 µM | [54] > 100 µM | [14] > 100 µM | [16] > 100 µM | [17] > 100 µM | [18] > 100 µM | [19] > 100 µM | [20] > 100 µM | [21] > 100 µM | [55] > 100 µM | [22] 93.3 µM | [23] > 100 µM | [24] > 100 µM | [25] > 100 µM | [26] > 100 µM | [27] > 100 µM | [28] > 100 µM | [29] > 100 µM | [30] > 100 µM | [32] > 100 µM | [33] > 100 µM | [34] > 100 µM | [35] > 100 µM | [56] > 100 µM | [36] > 100 µM | [37] > 100 µM | [38] > 100 µM | [39] > 100 µM | [40] > 100 µM | [57] > 100 µM | [41] > 100 µM | [43] > 100 µM | [44] > 100 µM | [45] 47.5 µM | [46] > 100 µM | [47] > 100 µM | [48] > 100 µM | [49] > 100 µM | [51] > 100 µM | [58] > 100 µM | [52] > 100 µM

CC12C(=O)CC(CC1=O)C2(C)C
> 100 µM: [15]
inactive: [1] > 100 µM | [2] > 100 µM | [3] > 100 µM | [4] > 100 µM | [6] > 100 µM | [8] > 100 µM | [9] > 100 µM | [10] > 100 µM | [59] > 100 µM | [11] > 100 µM | [12] > 100 µM | [53] > 100 µM | [13] > 100 µM | [54] > 100 µM | [14] > 100 µM | [16] > 100 µM | [17] > 100 µM | [18] > 100 µM | [20] > 100 µM | [21] > 100 µM | [55] > 100 µM | [22] > 100 µM | [23] > 100 µM | [24] > 100 µM | [25] > 100 µM | [27] > 100 µM | [29] > 100 µM | [30] > 100 µM | [31] > 100 µM | [32] > 100 µM | [33] > 100 µM | [34] > 100 µM | [35] > 100 µM | [56] > 100 µM | [36] > 100 µM | [38] > 100 µM | [39] > 100 µM | [40] > 100 µM | [41] > 100 µM | [42] > 100 µM | [43] > 100 µM | [44] > 100 µM | [45] > 100 µM | [46] > 100 µM | [48] > 100 µM | [49] > 100 µM | [50] > 100 µM | [51] > 100 µM | [52] > 100 µM
